18 compounds from patent publication US12187684B2, “Benzimidazole derivatives as modulators of retinoid-related orphan receptor gamma (RORγ) and pharmaceutical use thereof” (Jiangsu Hengrui Medicine Co., Ltd., priority 2018, dated 2025) can be followed below.

Assay [1] deals with IL-17 production, human PBMC cells. Nature of the assay: IL-17 production assay using human PBMC. The assay is classed as cell-based. The settings on record: human PBMC stimulated by cytostim for 3 days, IL-17 ELISA of supernatant. The source says: Test Example 2. IL-17 Production Assay Using Human PBMC
• 1. Human PBMC cells (Cat No. 70025.1, Zenbio) • 2. Lymphocyte medium (Cat No. LYMPH-1, Zenbio) • 3. TexMACS (Cat No. 130-097-196, Miltenyi) • 4. Cytostim-human (Cat No. 1130-092-173, Miltenyi) • 5. Human IL-17 ELISA (Cat No. D1700, R&D systems) • 6. Tecan Infinite M1000 plate reader (Tecan)
Experimental Procedure for IL-17 Production Assay
Cryopreserved peripheral blood human mononuclear cells (PBMCs) were rapidly thawed in warmed Lymphocyte media, and centrifuged cell suspension at 1000 rpm for 10 minutes. The supernatant was removed, and the cell pellets were gently resuspended in TexMACS media.
Human PBMC cells in TexMACS media were plated at 1×10^5 each well in triplicate. The test compounds at various concentrations or vehicle control (<0.5% DMSO) were added into cell culture. The cells were stimulated by cytostim (10 μL/mL) for 3 days in a humidified, 5% CO2 incubator at 37° C.
After incubation, the cell culture supernatant was harvested, and then removed particulates by centrifugation. Human IL-17 in the supernatant was measured using human IL-17 ELISA kit according to the manufacturer's protocol. IC50 values were determined using GraphPad Prism by plotting the compounds concentration versus percent inhibition.

For assay [2], the target named is T1, RORγ LBD-GST tagged (Homo sapiens, UniProt P51449).
T1 construct: RORγ LBD-GST tagged (Cat No. RORC-114H, Creative Biomart); purchased Creative Biomart RORC-114H
T1 sequence (P51449 269-508 limits assumed): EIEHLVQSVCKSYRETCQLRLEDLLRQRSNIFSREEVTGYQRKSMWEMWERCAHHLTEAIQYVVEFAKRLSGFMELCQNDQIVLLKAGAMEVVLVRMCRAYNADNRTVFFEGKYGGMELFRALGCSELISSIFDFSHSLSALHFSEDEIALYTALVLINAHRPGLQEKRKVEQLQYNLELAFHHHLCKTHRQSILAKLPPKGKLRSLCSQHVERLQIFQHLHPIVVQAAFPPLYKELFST
Kind of assay: LanthaScreen TR-FRET RORγ coactivator assay. The assay is classed as biochemical. Particulars: Fluorescein-D22 coactivator peptide, 1 hour room temperature. Put shortly:
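GST-tagged RORγ LBD (25 ng/reaction) was incubated in coregulator buffer D with 5 mM DTT and compound (top 3 μM, 7-fold steps, 7 doses), then with a mix containing 0.6 μM fluorescein-D22 peptide and 8 nM Tb anti-GST antibody. After 1 h at room temperature in the dark, 520/495 nm TR-FRET was read. IC50 came from log concentration versus percent inhibition.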

Usually IC50 stands for the concentration at which inhibition is half-maximal. Low values mean inhibition by little substance, high ones a need for much substance. Turning to `O=S(=O)(CC1CC1)c1ccc(C(CCO)c2nc3cc(Cl)c(N4CCC(F)(F)CC4)c(Cl)c3[nH]2)cc1` (single isomer, unassigned) [3-(4-((cyclopropylmethyl)sulfonyl)phenyl)-3-(5,7-dichloro-6-(4,4-difluoropiperidin-1-yl)-1H-benzo[d]imidazol-2-yl)propan-1-ol], the IC50 in assay [1] (Homo sapiens, PBMC, 72 h) amounted to 0.006 µM; in assay [2], 0.003 µM.

Take `O=S(=O)(CC1CC1)c1ccc(C(CCN2CCOCC2)c2nc3cc(-c4ccccc4OC(F)F)c(Cl)cc3[nH]2)cc1` (single isomer, unassigned) [164 or 165 made from Int-164A, (R or S)-4-(3-(6-chloro-5-(2-(difluoromethoxy)phenyl)-1H-benzo[d]imidazol-2-yl)-3-(4-((cyclopropylmethyl)sulfonyl)phenyl)propyl)morpholine]: the IC50 in assay [1] (Homo sapiens, PBMC, 72 h) stood at 0.28 µM; in assay [2], 1.25 µM. With `O=S(=O)(CC1CC1)c1ccc(C(CCN2CCOCC2)c2nc3cc(-c4ccccc4OC(F)F)c(Cl)cc3[nH]2)cc1` (single isomer, unassigned) [164 or 165 made from Int-164B, (R or S)-4-(3-(6-chloro-5-(2-(difluoromethoxy)phenyl)-1H-benzo[d]imidazol-2-yl)-3-(4-((cyclopropylmethyl)sulfonyl)phenyl)propyl)morpholine], the half-inhibitory concentration (IC50) in assay [1] amounted to 0.35 µM; in assay [2], 0.418 µM. As to `CC(=O)NCCC(c1ccc(S(=O)(=O)CC2CC2)cc1)c1nc2cc(-c3ccccc3OC(F)F)c(Cl)cc2[nH]1` (single isomer, unassigned) [166 or 167 made from Int-164A, (R or S)—N-(3-(6-chloro-5-(2-(difluoromethoxy)phenyl)-1H-benzo[d]imidazol-2-yl)-3-(4-((cyclopropylmethyl)sulfonyl)phenyl)propyl)acetamide], the IC50 in assay [1] (Homo sapiens, PBMC, 72 h) worked out at 0.066 µM; in assay [2], 0.01 µM. As for `CC(=O)NCCC(c1ccc(S(=O)(=O)CC2CC2)cc1)c1nc2cc(-c3ccccc3OC(F)F)c(Cl)cc2[nH]1` (single isomer, unassigned) [166 or 167 made from Int-164B, (R or S)—N-(3-(6-chloro-5-(2-(difluoromethoxy)phenyl)-1H-benzo[d]imidazol-2-yl)-3-(4-((cyclopropylmethyl)sulfonyl)phenyl)propyl)acetamide], the results for the half-inhibitory concentration (IC50) in assay [1] and in assay [2] were 0.072 µM and 0.047 µM, respectively. On to `CCS(=O)(=O)c1ccc(C(CCO)c2nc3c(Cl)c(N4CCC(F)(F)CC4)c(Cl)cc3[nH]2)cc1` (single isomer, unassigned) [the longer retention time of 139 and 140, 3-(4,6-dichloro-5-(4,4-difluoropiperidin-1-yl)-1H-benzo[d]imidazol-2-yl)-3-(4-(ethylsulfonyl)phenyl)propan-1-ol], for which the values for the half-maximal inhibitory concentration (IC50) in assay [1] and in assay [2] were 0.026 µM and 0.035 µM, respectively. For `CCS(=O)(=O)c1ccc(C(CC(N)=O)c2nc3c(Cl)c(N4CCC(F)(F)CC4)c(Cl)cc3[nH]2)cc1` (single isomer, unassigned) [the longer retention time of 146 and 147, 3-(4,6-dichloro-5-(4,4-difluoropiperidin-1-yl)-1H-benzo[d]imidazol-2-yl)-3-(4-(ethylsulfonyl)phenyl)propanamide] the same measures were 0.014 µM and 0.004 µM. Regarding `CC(C)Oc1ccccc1-c1cc2nc(C(CC(N)=O)c3ccc(S(=O)(=O)CC4CC4)cc3)[nH]c2cc1Cl` (single isomer, unassigned) [the longer retention time of 148 and 149, 3-(6-chloro-5-(2-isopropoxyphenyl)-1H-benzo[d]imidazol-2-yl)-3-(4-((cyclopropylmethyl)sulfonyl)phenyl)propanamide], the IC50 in assay [1] was 0.022 µM; in assay [2], 0.083 µM. For `CC(C)Oc1ccccc1-c1cc2nc(C(CCO)c3ccc(S(=O)(=O)CC4CC4)cc3)[nH]c2cc1Cl` (single isomer, unassigned) [the longer retention time of 150 and 151, 3-(6-chloro-5-(2-isopropoxyphenyl)-1H-benzo[d]imidazol-2-yl)-3-(4-((cyclopropylmethyl)sulfonyl)phenyl)propan-1-ol], the IC50 came out at 0.031 µM in assay [1] and 0.026 µM in assay [2]. On the same counts, the results for `NC(=O)CC(c1ccc(S(=O)(=O)CC2CC2)cc1)c1nc2cc(-c3ccccc3OC(F)F)c(Cl)cc2[nH]1` (single isomer, unassigned) [the longer retention time of 152 and 153, 3-(6-chloro-5-(2-(difluoromethoxy)phenyl)-1H-benzo[d]imidazol-2-yl)-3-(4-((cyclopropylmethyl)sulfonyl)phenyl)propanamide] are 0.01 µM and 0.013 µM. As for `O=S(=O)(CC1CC1)c1ccc(C(CCO)c2nc3cc(-c4ccccc4OC(F)F)c(Cl)cc3[nH]2)cc1` (single isomer, unassigned) [the longer retention time of 155 and 156, 3-(6-chloro-5-(2-(difluoromethoxy)phenyl)-1H-benzo[d]imidazol-2-yl)-3-(4-((cyclopropylmethyl)sulfonyl)phenyl)propan-1-ol], the IC50 stood at 0.026 µM in assay [1] and 0.074 µM in assay [2]. In assay [1], `CCS(=O)(=O)c1ccc(C(CCO)c2nc3c(Cl)c(N4CCC(F)(F)CC4)c(Cl)cc3[nH]2)cc1` (single isomer, unassigned) [the shorter retention time of 139 and 140] [3-(4,6-dichloro-5-(4,4-difluoropiperidin-1-yl)-1H-benzo[d]imidazol-2-yl)-3-(4-(ethylsulfonyl)phenyl)propan-1-ol] had a concentration for half-maximal inhibition (IC50) of 0.214 µM. The same measure, in the same setting: the result for `CCS(=O)(=O)c1ccc(C(CC(N)=O)c2nc3c(Cl)c(N4CCC(F)(F)CC4)c(Cl)cc3[nH]2)cc1` (single isomer, unassigned) [the shorter retention time of 146 and 147] [3-(4,6-dichloro-5-(4,4-difluoropiperidin-1-yl)-1H-benzo[d]imidazol-2-yl)-3-(4-(ethylsulfonyl)phenyl)propanamide] reads 0.315 µM. On the same count and under the same terms, under `CC(C)Oc1ccccc1-c1cc2nc(C(CC(N)=O)c3ccc(S(=O)(=O)CC4CC4)cc3)[nH]c2cc1Cl` (single isomer, unassigned) [the shorter retention time of 148 and 149] [3-(6-chloro-5-(2-isopropoxyphenyl)-1H-benzo[d]imidazol-2-yl)-3-(4-((cyclopropylmethyl)sulfonyl)phenyl)propanamide] stands 0.555 µM; under `CC(C)Oc1ccccc1-c1cc2nc(C(CCO)c3ccc(S(=O)(=O)CC4CC4)cc3)[nH]c2cc1Cl` (single isomer, unassigned) [the shorter retention time of 150 and 151] [3-(6-chloro-5-(2-isopropoxyphenyl)-1H-benzo[d]imidazol-2-yl)-3-(4-((cyclopropylmethyl)sulfonyl)phenyl)propan-1-ol], 0.718 µM; under `NC(=O)CC(c1ccc(S(=O)(=O)CC2CC2)cc1)c1nc2cc(-c3ccccc3OC(F)F)c(Cl)cc2[nH]1` (single isomer, unassigned) [the shorter retention time of 152 and 153] [3-(6-chloro-5-(2-(difluoromethoxy)phenyl)-1H-benzo[d]imidazol-2-yl)-3-(4-((cyclopropylmethyl)sulfonyl)phenyl)propanamide], 0.86 µM. On the same count and under the same terms, under `O=S(=O)(CC1CC1)c1ccc(C(CCO)c2nc3cc(-c4ccccc4OC(F)F)c(Cl)cc3[nH]2)cc1` (single isomer, unassigned) [the shorter retention time of 155 and 156] [3-(6-chloro-5-(2-(difluoromethoxy)phenyl)-1H-benzo[d]imidazol-2-yl)-3-(4-((cyclopropylmethyl)sulfonyl)phenyl)propan-1-ol] stands 0.135 µM; under `NC(=O)CC(c1ccc(S(=O)(=O)CC2CC2)cc1)c1nc2cc(Cl)c(N3CCC(F)(F)CC3)c(Cl)c2[nH]1` (single isomer, unassigned) [the shorter retention time of 162 and 163] [3-(4-((cyclopropylmethyl)sulfonyl)phenyl)-3-(5,7-dichloro-6-(4,4-difluoropiperidin-1-yl)-1H-benzo[d]imidazol-2-yl)propanamide], 0.069 µM.
